Test results published in patent US20240316146A1, “METHODS OF REDUCING NEUROPATHY AND NEUROPATHIC SYMPTOMS AND TREATING CANCER” (Bexion Pharmaceuticals Inc., priority 2021, published 2024).
Where “and” joins values, the source holds several entries; their conditions need not be identical. Equal values may be shown once.

Assays:
[1] = test system: mouse oxaliplatin model of chemotherapy-induced neuropathy; experiment: Static mechanical (tactile) allodynia, von Frey filaments, Study 2; assay type: in vivo; conditions: Study 2; oxaliplatin treated mice, days assessed; BXQ-350 2 and 10 mg/kg
Experimental: (§1) Static mechanical tactile allodynia: Static mechanical (tactile) allodynia was assessed by measurement of withdrawal threshold using calibrated (force; g) von-Frey monofilaments (Touch-Test Sensory Evaluator; Scientific Marketing Associates) applied to the plantar surface of the left hind-paw. The animals were placed in individual Perspex boxes on a raised metal mesh for 30-40 min before the test to habituate. A series of graduated von Frey hairs (0.07, 0.16, 0.4, 0.6 and 1 g) were applied in sequence with a protocol of 1 sec on 1 sec off repeated 10 times. Each hair was applied perpendicularly to the center of the ventral surface of the paw until it bent slightly. The force applied to the hind-paw of the animal to induce 5 responses out of 10 trials was recorded as paw withdrawal threshold (PWT) 50%.
(§2) 60 adult male C57/BL6 mice (Charles River), 6-7 weeks of age, were housed in groups of 5 in Perspex cages, in a controlled environment of constant temperature and humidity (temperature: 21±1° C., light: dark cycle of 12:12 hours), with food and water available ad libitum. Animals were allowed to recover from transportation for at least one week before commencing experiments.
Static mechanical tactile allodynia: The same apparatus and protocol were used as for Study 1.

PC-12 cells = experiment: Viable cell counts, PC-12 cells; assay type: cell-based, rat; conditions: for cell viability (in words): 2 μM oxaliplatin alone
Experimental: The neurostimulatory, neuroprotective, and neurotrophic qualities of the SapC-phospholipid formulation (BXQ-350) were tested in vitro in two cell lines, i.e., PC-12 cells (derived from a pheochromocytoma of a rat adrenal medulla) and NS20Y cells (cholinergic cell line derived from a mouse neuroblastoma).
PC-12 cells (ATCC, catalogue number CRL-1721) and NS20Y cells (Millipore Sigma, catalogue number 08062517) were seeded overnight in 24-well plates containing 1×10^4 cells per well in 1 mL of DMEM (Gibco, catalog number 11965-092) supplemented with 10% FBS and PenStrep. Each agent tested was brought to solution, at its appropriate concentrations, in a dosing media consisting of high glucose, no glutamine, no calcium DMEM (Gibco, catalog number 21068-028) supplemented with 4 mM glutamine, 1 mM calcium gluconate and PenStrep. […] The seeding medium was completely removed from the cells before the dosing medium containing the testing agents was added.
PC-12 cells (ATCC, catalogue number CRL-1721) and NS20Y cells (Millipore Sigma, catalogue number 08062517) were seeded overnight in 24-well plates containing 1×10^4 cells per well in 1 mL of DMEM (Gibco, catalog number 11965-092) supplemented with 10% FBS and PenStrep. Each agent tested was brought to solution, at its appropriate concentrations, in a dosing media consisting of high glucose, no glutamine, no calcium DMEM (Gibco, catalog number 21068-028) supplemented with 4 mM glutamine, 1 mM calcium gluconate and PenStrep. BXQ-350 was tested at concentrations between 5 nM and 1 μM concentration of SapC. The seeding medium was completely removed from the cells before the dosing medium containing the testing agents was added.
The viability of the cytotoxic drug+BXQ-350 combination groups was about 50% of the BXQ-350 alone group.

[2] = test system: mouse oxaliplatin model of chemotherapy-induced neuropathy; experiment: Thermal hypersensitivity, cold plate test, Study 2; conditions: Group B Oxaliplatin/Vehicle; for Latency to withdrawal behaviour in the cold plate test (15° C.): N 12
Experimental: (§3) Thermal hypersensitivity: Thermal hypersensitivity was assessed using a dynamic cold plate (Bioseb, France) set at a fixed temperature of 15° C. This method allows analysis of more integrated behaviors rather than reflex behaviors, e.g., the tail immersion test. In animal studies, thermal sensitivity is mostly evaluated based on nociceptive reaction latencies in response to a given thermal aversive stimulus. In this classical test, the temperature of the plate is fixed and remains constant: the latency to the first paw licking, jumps or withdrawal is taken as an index of nociceptive threshold. […] The results of the study are shown in Table 5 (raw data) below, Table 6 (summary) below, FIG. 4, and FIG. 5.
as §2
Thermal hypersensitivity: The same apparatus and protocol were used as for Study 1. The results of Study 2 are shown in Table 11 (raw data), Table 12 (summary), FIG. 8, and FIG. 9.

[3] = test system: mouse oxaliplatin model of chemotherapy-induced neuropathy; experiment: Thermal hypersensitivity, cold plate test 15° C., Study 1; assay type: in vivo
Experimental: as §2, §3
(§4) Warm vials of BQX-350 were brought to room temperature and reconstituted with 4 mL water for injection via syringe. The vials were gently agitated and/or vortexed for 15-20 sec and allowed to sit at room temp for 5 mins. The rehydrated solution contained 2.2 mg/mL SapC (8.8 mg SapC per vial). About […] of the formulation was injected to achieve a target dose of 20 mg/kg in each mouse. Pregabalin was reconstituted in water and injected to achieve a target dose of 30 mg/kg in each mouse.
(§5) A two-way repeated measures ANOVA with ‘treatment’ as a between subjects effect, and ‘day’ as a within subjects effect was used (using GraphPad Prism version 9.0 for Windows, GraphPad Software, San Diego California USA), followed by Dunnett's multi comparisons test. Data is presented as mean±SEM.

[4] = test system: mouse oxaliplatin model of chemotherapy-induced neuropathy; experiment: Static mechanical (tactile) allodynia, von Frey filaments, Study 1; assay type: in vivo
Experimental: as §2, §1, §4, §5

[5] = cold plate 15° C., oxaliplatin 10 mg/kg IP day 0 (+vehicle, BXQ-350 20 mg/kg IP or pregabalin 30 mg/kg IP), group mean
[6] = oxaliplatin treated animals, day 3 to day 9, BXQ-350 20 mg/kg, pregabalin 30 mg/kg 2 hours before assessment
[7] = oxaliplatin 10 mg/kg IP day 0 (+vehicle, BXQ-350 20 mg/kg IP or pregabalin 30 mg/kg IP), group mean

## O=C([O-])C(=O)[O-].[NH-][C@@H]1CCCC[C@H]1[NH-].[Pt+4] (relative stereo) [Oxaliplatin, cis-[(1R,2R)-1,2-cyclohexanediamine-N,N′][oxalato(2)-O,O′] platinum]
[1]
  paw withdrawal threshold (PWT) levels (in words): induced consistent and persistent mechanical allodynic response
PC-12 cells
  cell viability (in words): negligible cell viability
PC-12 cells; 2 μM oxaliplatin alone (FIG. 12)
  cell viability: less than 1%
PC-12 cells; listed as oxaliplatin
  cell viability (in words): severely reduces cell viability
[2]; oxaliplatin 10 mg/kg i.p. day 0, D 3, individual mice
  Individual latency to displaying withdrawal behaviour in the cold plate test: 18.8 s and 69.3 s and 84.0 s and 28.0 s and 19.9 s and 34.2 s and 36.8 s and 23.9 s and 77.7 s and 54.5 s
[2]; oxaliplatin 10 mg/kg i.p. day 0, D3, mean (SEM)
  Latency to withdrawal behaviour in the cold plate test (15° C.): 42.933 + s
[2]; oxaliplatin 10 mg/kg i.p. day 0, D 5, individual mice
  Individual latency to displaying withdrawal behaviour in the cold plate test: 29.8 s and 12.7 s and 28.7 s and 18.6 s and 13.1 s and 25.5 s and 33.8 s and 17.4 s and 47.1 s and 16.4 s and 11.8 s and 43.8 s
[2]; oxaliplatin 10 mg/kg i.p. day 0, D5, mean (SEM)
  Latency to withdrawal behaviour in the cold plate test (15° C.): 24.888 ? s
[2]; oxaliplatin 10 mg/kg i.p. day 0, D 7, individual mice
  Individual latency to displaying withdrawal behaviour in the cold plate test: 13.7 s and 22.3 s and 7.4 s and 28.4 s and 4.8 s and 23.9 s and 26.1 s and 29.6 s and 23.2 s and 26.3 s and 12.7 s and 44.2 s
[2]; oxaliplatin 10 mg/kg i.p. day 0, D7, mean (SEM)
  Latency to withdrawal behaviour in the cold plate test (15° C.): 21.883 + s
[2]; oxaliplatin 10 mg/kg i.p. day 0, D 9, individual mice
  Individual latency to displaying withdrawal behaviour in the cold plate test: 25.2 s and 23.9 s and 39.0 s and 17.2 s and 18.4 s and 23.0 s and 35.0 s and 23.8 s and 12.7 s and 30.6 s and 6.4 s and 33.2 s
[2]; oxaliplatin 10 mg/kg i.p. day 0, D9, mean (SEM)
  Latency to withdrawal behaviour in the cold plate test (15° C.): 24.033 + s
[2]; oxaliplatin 10 mg/kg i.p. day 0, D −1, individual mice
  Individual latency to displaying withdrawal behaviour in the cold plate test: 26.1 s and 32.9 s and 45.8 s and 42.4 s and 24.4 s and 53.7 s and 64.3 s and 91.7 s and 31.2 s and 45.0 s and 37.0 s and 33.4 s
[2]; oxaliplatin 10 mg/kg i.p. day 0, D −1, mean (SEM)
  Latency to withdrawal behaviour in the cold plate test (15° C.): 43.992 + s
[2]; oxaliplatin 10 mg/kg i.p. day 0, D −2, individual mice
  Individual latency to displaying withdrawal behaviour in the cold plate test: 36.8 s and 63.0 s and 47.4 s and 35.8 s and 31.9 s and 42.2 s and 61.4 s and 63.3 s and 55.6 s and 41.5 s and 29.0 s and 36.7 s
[2]; oxaliplatin 10 mg/kg i.p. day 0, D −2, mean (SEM)
  Latency to withdrawal behaviour in the cold plate test (15° C.): 45.383 + s
[2]; oxaliplatin 10 mg/kg i.p. day 0, D −3, individual mice
  Individual latency to displaying withdrawal behaviour in the cold plate test: 29.9 s and 35.1 s and 40.1 s and 49.9 s and 24.7 s and 30.0 s and 72.0 s and 50.6 s and 67.4 s and 55.6 s
[2]; oxaliplatin 10 mg/kg i.p. day 0, D −3, mean (SEM)
  Latency to withdrawal behaviour in the cold plate test (15° C.): 44.183 + s
[3]; [5]
  Latency (s) Baseline: 54.717 s
  Latency (s) D 3: 25.583 s
  Latency (s) D 5: 28.567 s
  Latency (s) D 7: 32.475 s
  Latency (s) D 9: 22.050 s
[3]; oxaliplatin 10 mg/kg IP day 0 (+vehicle, BXQ-350 20 mg/kg IP or pregabalin 30 mg/kg IP), Baseline, individual mice
  Individual latency to displaying withdrawal behaviour in the cold plate test: 45.4 s and 59.0 s and 48.3 s and 65.5 s and 80.0 s and 54.3 s and 46.2 s and 46.7 s and 46.5 s and 58.8 s and 48.6 s and 57.6 s
[3]; oxaliplatin 10 mg/kg IP day 0 (+vehicle, BXQ-350 20 mg/kg IP or pregabalin 30 mg/kg IP), Day 3, individual mice
  Individual latency to displaying withdrawal behaviour in the cold plate test: 22.9 s and 19.5 s and 25.9 s and 24.2 s and 30.2 s and 15.0 s and 31.3 s and 34.1 s and 22.0 s and 24.3 s and 35.5 s and 22.1 s
[3]; oxaliplatin 10 mg/kg IP day 0 (+vehicle, BXQ-350 20 mg/kg IP or pregabalin 30 mg/kg IP), Day 5, individual mice
  Individual latency to displaying withdrawal behaviour in the cold plate test: 30.3 s and 27.7 s and 39.8 s and 17.3 s and 31.1 s and 38.3 s and 24.5 s and 18.5 s and 16.0 s and 30.1 s and 33.9 s
[3]; oxaliplatin 10 mg/kg IP day 0 (+vehicle, BXQ-350 20 mg/kg IP or pregabalin 30 mg/kg IP), Day 7, individual mice
  Individual latency to displaying withdrawal behaviour in the cold plate test: 16.8 s and 45.9 s and 49.6 s and 37.6 s and 24.3 s and 28.8 s and 18.6 s and 23.0 s and 62.9 s and 31.8 s and 21.5 s and 28.9 s
[3]; oxaliplatin 10 mg/kg IP day 0 (+vehicle, BXQ-350 20 mg/kg IP or pregabalin 30 mg/kg IP), Day 9, individual mice
  Individual latency to displaying withdrawal behaviour in the cold plate test: 12.6 s and 13.6 s and 24.8 s and 23.1 s and 31.8 s and 20.9 s and 17.4 s and 25.0 s and 10.6 s and 19.4 s and 25.8 s
[3]; [6]
  thermal (cold) sensitivity, cold plate test (in words): increased thermal (cold) sensitivity
[4]; [7]
  PWT 50% (g) Baseline: 0.780 g
  PWT 50% (g) D3: 0.423 g
  PWT 50% (g) D5: 0.357 g
  PWT 50% (g) D7: 0.369 g
  PWT 50% (g) D9: 0.373 g
[4]; [6]
  mechanical allodynia (in words): induced consistent and persistent mechanical allodynic response
